Where no end group is shown, it is not given here.
How the values were obtained:
HIV-1IIIB = experiment: HIV-1 antiviral assay in CEM-SS cells (MTS read-out of virus cell killing)
[1] = test system: hepatitis B virus (HBV) ayw strain; experiment: HBV assay in HepG2-2.2.15 cells (secreted HBV DNA, TaqMan PCR); assay type: cell-based; details: 10 micrograms per ml, six days, HBV DNA in supernatant
Excerpt: HepG2-2.2.15 is a stable cell line containing the hepatitis B virus (HBV) ayw strain genome (ATCC Cat. No. CRL-11997). Antiviral compounds blocking any late step of viral replication such as transcription, translation, pregenome encapsidation, reverse transcription, particle assembly and release can be identified and characterized using this cell line. In this assay, an active compound will reduce the production of secreted HBV from cells, measured by utilizing real time quantitative PCR (TaqMan) assay to directly and accurately measure HBV DNA copies.
HepG2-2.2.15 cells were plated in 96-well microtiter plates. After 16-24 hours the confluent monolayer of HepG2-2.2.15 cells was washed and the medium was replaced with complete medium containing test peptides—10 micrograms per ml—in duplicate. […] Six days following the initial administration of the peptides, the cell culture supernatants was collected, treated with pronase and DNAse and then used in a real-time quantitative TaqMan PCR assay. The PCR-amplified HBV DNA was detected in real-time by monitoring increases in fluorescence signals that result from the exonucleolytic degradation of a quenched fluorescence probe molecule that hybridizes to the amplified HBV DNA. […] Antiviral activity was calculated from the reduction in HBV DNA levels (% virus control). […]

[2] = test system: Human Peripheral Blood Mononuclear Cells (PBMC), B cell proliferation; experiment: B cell proliferation assay (SAC plus Interleukin-2, 3H-thymidine); assay type: cell-based; details: 10 micrograms per ml; SAC plus IL-2 stimulated PBMC
Protocol: Human Peripheral Blood Mononuclear Cells (PBMC) were obtained from normal human donors. The B cell proliferation was induced by stimulation of the cells with the B cell mitogen Staphylococcus aureus Cowans I (SAC) plus Interleukin-2, either in the absence (positive proliferation control), or in the presence of test peptides—10 micrograms per ml—to examine their effects on the B cell response. 10^5/well PBMC were plated in 96-well microtiter plates and assayed in duplicate with the peptides. […] At the end of incubation time, the plates were harvested and the cells counted by liquid scintillation for the incorporation of ^3H-thymidine as a measure of B cell proliferation.

[3] = test system: IL-2, IL-4, IL-5, IFN-γ and TNF-α protein levels of spleen cells; experiment: Th1/Th2 cytokine profiling assay (Ovalbumin-restimulated spleen cells, CBA kit); assay type: cell-based, Balb/c mice; details: 10 micrograms per ml; Ovalbumin restimulation, 72 hours
Excerpt: The Balb/c mice (originated in 1923, it is a popular strain and is used in many different research disciplines. Also classified as an inbred from the production of 20 or more successive brother-sister matings, the Balb/c mouse is albino and small in size) were immunized on Days 1, 15, and 29 with Ovalbumin (Ovalbumin is the main protein found in egg white, commonly used to stimulate an immunological reaction in test animals) in PBS (5 micrograms/injection). On day 50, spleens of the mice were harvested (3 weeks after last boost with Ovalbumin). […] Thereafter, additional Ovalbumin was added to the cells at 10 micrograms/ml for in vitro restimulation of the cells. 72 hours later, cell supernatants were harvested and assayed using the Becton Dickinson Mouse Th1/Th2 Cytokine CBA Kit. This kit can be used to measure Interleukin-2 (IL-2), Interleukin-4 (IL-4), Interleukin-5 (IL-5), Interferon-γ (IFN-γ), and Tumor Necrosis Factor-α (TNF-α) protein levels in a single sample.

[4] = test system: Primary Human endothelial cells (HUVEC); experiment: Endothelial cell migration assay; assay type: cell-based; details: 10 micrograms per ml, 22 hours
Protocol: Thereafter, designated concentration of testing peptides -10 micrograms per ml—was added in duplicate wells.

HUVEC = experiment: Endothelial tube formation assay; assay type: cell-based, human; details: 10 micrograms per ml, 20 hours
Excerpt: Positive control was vehicle only.

[5] = test system: cyclic AMP generation in human peripheral blood mononuclear cells (PBMC); experiment: cAMP induction assay (ELISA); assay type: cell-based; details: 10 min at 37° C.
Protocol: The cAMP kit was used as an immunoassay for the quantitative determination of cyclic AMP generation in human peripheral blood mononuclear cells (PBMC). PBMC were placed in 96-well microtitier plates (50 microliters of cells at 4×10^6/ml) and 50 microliters of medium alone (background control), forskolin (cAMP positive control; 50 micrograms per ml), or test peptides were added. Plates were mixed and incubated for 10 min at 37° C. and the cells were lysed by the addition of 50 microliters of 3% perchloric acid. NaOH was added to neutralize the samples. Plates were centrifuged for 15 min at 2500 rpm and the supernatants removed. The supernatants (diluted 2-fold in assay buffer) were then assayed for the levels of cAMP by ELISA.

Molecule	antiviral activity of positive control compounds (HIV-1) (HIV-1IIIB)	inhibition of HBV replication as compared to the virus control infection [1]	inhibition of the proliferation of specifically stimulated human B-cells [2]	IFNγ spleen cells; TH1 response (% of control) [3]	IL-2 spleen cells (% of control) [3]	IL-4 spleen cells; TH2 response (% of control) [3]	IL-5 spleen cells; TH2 response (% of control) [3]	TNF-a spleen cells; TH1 response (% of control) [3]	induction of the migration of human endothelial cells [4]	inhibition of the tube formation of endothelial cells (HUVEC)	induction of cAMP formation in human peripheral blood cells [5]
Cc1cn([C@H]2C[C@H](N=[N+]=[N-])[C@@H](CO)O2)c(=O)[nH]c1=O [AZT]	expected levels of antiviral activity										
CC(C)(C)NC(=O)[C@@H]1CN(Cc2cccnc2)CCN1C[C@@H](O)C[C@@H](Cc1ccccc1)C(=O)N[C@H]1c2ccccc2C[C@H]1O [indinavir]	expected levels of antiviral activity										
Met-Ala-Ile-Pro-Pro-Lys-Lys-Asn-Gln-Asp-Lys-OH (MAIPPKKNQDK-OH) [peptide 1]		29.4%	21.2%	63.4 % of control	0.0 % of control	0.0 % of control	57.1 % of control	74.9 % of control	22%	23%	5.3%
Tyr-Gly-Phe-Gln-Asn-Ala-OH (YGFQNA-OH) [peptide 2]		35.7%	7.1%	48.2 % of control	0.0 % of control	0.0 % of control	42.2 % of control	81.4 % of control	26%	21%	1.8%
